Experiments:
Type in all cases: biochemical
[1] = biological target: T1, TAO (Homo sapiens, UniProt Q9UL54); experiment: TAO Luciferase-Coupled Chemiluminescent Kinase assay (LCCA); settings: 2 μM ATP, 10 μM MBP, 12 nM TAO, 2 hours; read-out: TAO inhibition IC50
T1 sequence (Q9UL54 1-1235): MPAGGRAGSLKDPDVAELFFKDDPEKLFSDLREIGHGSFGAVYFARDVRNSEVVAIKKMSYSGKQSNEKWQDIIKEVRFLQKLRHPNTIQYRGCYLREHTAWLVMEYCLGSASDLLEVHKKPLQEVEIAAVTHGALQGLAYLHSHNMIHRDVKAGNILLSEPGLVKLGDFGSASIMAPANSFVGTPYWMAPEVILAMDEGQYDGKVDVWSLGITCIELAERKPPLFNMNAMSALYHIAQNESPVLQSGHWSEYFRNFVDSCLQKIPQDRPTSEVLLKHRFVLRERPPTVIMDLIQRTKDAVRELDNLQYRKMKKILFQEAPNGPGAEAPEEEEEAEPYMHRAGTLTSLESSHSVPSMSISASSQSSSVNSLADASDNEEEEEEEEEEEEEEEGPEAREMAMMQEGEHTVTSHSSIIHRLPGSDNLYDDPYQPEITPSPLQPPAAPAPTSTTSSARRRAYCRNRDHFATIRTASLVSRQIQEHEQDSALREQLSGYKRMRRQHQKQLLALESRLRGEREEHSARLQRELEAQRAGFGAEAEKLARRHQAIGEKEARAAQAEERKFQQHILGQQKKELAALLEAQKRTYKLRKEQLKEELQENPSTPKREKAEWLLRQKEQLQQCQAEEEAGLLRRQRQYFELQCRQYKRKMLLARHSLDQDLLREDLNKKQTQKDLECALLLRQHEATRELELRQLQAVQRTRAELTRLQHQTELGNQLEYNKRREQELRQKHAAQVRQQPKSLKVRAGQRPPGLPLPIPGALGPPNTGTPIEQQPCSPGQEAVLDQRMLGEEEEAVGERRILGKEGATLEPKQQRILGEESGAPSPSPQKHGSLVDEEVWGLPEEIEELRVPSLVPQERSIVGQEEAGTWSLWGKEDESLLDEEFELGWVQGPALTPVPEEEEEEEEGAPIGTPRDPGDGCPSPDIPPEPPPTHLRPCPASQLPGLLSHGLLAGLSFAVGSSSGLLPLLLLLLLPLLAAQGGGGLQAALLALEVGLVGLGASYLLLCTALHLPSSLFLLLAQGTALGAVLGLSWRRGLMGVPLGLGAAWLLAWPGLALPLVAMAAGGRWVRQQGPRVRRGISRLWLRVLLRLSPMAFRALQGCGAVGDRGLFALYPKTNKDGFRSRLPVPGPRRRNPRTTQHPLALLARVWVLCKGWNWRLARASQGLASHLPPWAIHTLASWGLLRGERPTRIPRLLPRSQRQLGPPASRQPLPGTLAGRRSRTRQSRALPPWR
Protocol: (§1) Kinase activity and compound inhibition are investigated using one or more of the three assay formats described below. The ATP concentrations for each assay are selected to be close to the Michaelis-Menten constant (KM) for each individual kinase. Dose-response experiments are performed at 10 different inhibitor concentrations in a 384-well plate format. The data are fitted to four-parameter equation (2) below; where Y is the observed signal, X is the inhibitor concentration, Min is the background signal in the absence of enzyme (0% enzyme activity), Max is the signal in the absence of inhibitor (100% enzyme activity), IC50 is the inhibitor concentration at 50% enzyme inhibition and H represents the empirical Hill's slope to measure the cooperativity. Typically H is close to unity. Y=Min+(Max−Min)/(1+(X/IC50)ˆH) Equation (2) KIAA 1361 Assay: […]
(§2) TAO biochemical activity was assessed using a Luciferase-Coupled Chemiluminescent Kinase assay (LCCA) format. Kinase activity was measured as the percent ATP remaining following the kinase reaction. Remaining ATP was detected by luciferase-luciferin-coupled chemiluminescence. Specifically, the reaction was initiated by mixing test compounds, 2 μM ATP, 10 μM MBP and 12 nM TAO (baculovirus expressed human KIAA 1361 kinase domain 2-322) in a 20 uL assay buffer (20 mM Tris-HCL pH7.5, 10 mM MgCl2, 0.02% Triton X-100, 100 mM DTT, 2 mM MnCl2). The mixture is incubated at ambient temperature for 2 hours after which 20 uL luciferase-luciferin mix is added and the chemiluminescent signal read using a Wallac Victor^2 reader. The luciferase-luciferin mix consists of 50 mM BEPES, pH 7.8, 8.5 ug/mL oxalic acid (pH 7.8), 5 (or 50) mM DTT, 0.4% Triton X-100, 0.25 mg/nL coenzyme A, 63 uM AMP, 28 ug/mL luciferin and 40,000 units of light/mL luciferase.

[2] = biological target: T2, KIAA 1361 (baculovirus expressed human KIAA 1361 kinase domain 2-322) (Homo sapiens, UniProt Q7L7X3); experiment: KIAA 1361 Luciferase-Coupled Chemiluminescent Kinase assay (LCCA); settings: 2 μM ATP, 10 μM MBP, 12 nM KIAA 1361, 2 hours; read-out: KIAA1361 inhibition IC50
T2 construct: human KIAA 1361 kinase domain 2-322; made in house
T2 sequence (Q7L7X3 2-322): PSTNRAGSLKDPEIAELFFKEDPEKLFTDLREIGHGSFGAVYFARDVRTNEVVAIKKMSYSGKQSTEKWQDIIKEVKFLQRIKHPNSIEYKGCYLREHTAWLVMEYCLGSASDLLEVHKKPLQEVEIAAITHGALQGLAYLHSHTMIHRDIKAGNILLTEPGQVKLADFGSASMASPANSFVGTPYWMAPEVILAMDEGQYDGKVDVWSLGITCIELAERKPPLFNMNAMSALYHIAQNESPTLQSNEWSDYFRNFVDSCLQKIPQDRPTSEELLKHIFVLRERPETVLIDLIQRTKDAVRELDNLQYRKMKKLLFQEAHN
Protocol: as §1
as §2, with “KIAA 1361” for “TAO”, “HEPES,” for “BEPES,”, “mg/mL” for “mg/nL”

[3] = biological target: T3, JIK (Homo sapiens, UniProt Q9H2K8); experiment: JIK Luciferase-Coupled Chemiluminescent Kinase assay (LCCA); settings: 2 μM ATP, 10 μM MBP, 6 nM JIK, 2 hours; read-out: JIK inhibition IC50
T3 construct: 6 nM JIK (baculovirus expressed human KIAA 1361 kinase domain2-318); made in house
T3 sequence (Q9H2K8 2-318): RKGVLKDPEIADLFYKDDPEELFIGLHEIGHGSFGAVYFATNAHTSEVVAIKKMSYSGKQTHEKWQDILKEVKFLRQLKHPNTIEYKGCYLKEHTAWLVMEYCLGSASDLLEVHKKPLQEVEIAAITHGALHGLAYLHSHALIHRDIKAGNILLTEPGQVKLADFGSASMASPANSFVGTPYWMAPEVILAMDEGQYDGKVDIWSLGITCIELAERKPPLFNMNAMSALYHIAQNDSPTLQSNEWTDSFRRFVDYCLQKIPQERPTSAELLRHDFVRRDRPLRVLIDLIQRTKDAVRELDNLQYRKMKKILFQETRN
Protocol: as §1
as §2, with “JIK” for “TAO”, “6” for “12”, “domain2-318)” for “domain 2-322)”, “HEPES,” for “BEPES,”, “mg/mL” for “mg/nL”

IC50 [1]	IC50 [2]	IC50 [3]	Compound
> 5000 nM	> 5000 nM	> 5000 nM	O=C(CNC(=O)c1ccc2ncccc2c1)Nc1cccc2c1CCCC2 [Entry 86, N-[2-oxo-2-(5,6,7,8-tetrahydronaphthalen-1-ylamino)ethyl]quinoline-6-carboxamide]
500 to 5000 nM	500 to 5000 nM	50 to 500 nM	O=C(CNC(=O)c1ccc(OC(F)(F)F)cc1)NC1CCCc2ccccc21 (stereo not drawn) [Entry 45, N-[2-oxo-2-(1,2,3,4-tetrahydronaphthalen-1-ylamino)ethyl]-4-[(trifluoromethyl)oxy]benzamide]
> 5000 nM	> 5000 nM	> 5000 nM	O=C(CNC(=O)c1ccc(N2CCCCC2)cc1)Nc1cccc2c1CCCC2 [Entry 89, N-[2-oxo-2-(5,6,7,8-tetrahydronaphthalen-1-ylamino)ethyl]-4-piperidin-1-ylbenzamide]
500 to 5000 nM	500 to 5000 nM	50 to 500 nM	CCCCOc1ccc(C(=O)NCC(=O)NC2CCCc3ccccc32)cc1 (stereo not drawn) [Entry 27, 4-(butyloxy)-N-[2-oxo-2-(1,2,3,4-tetrahydronaphthalen-1-ylamino)ethyl]benzamide]
50 to 500 nM	< 50 nM	< 50 nM	CCCCCCOc1ccc(C(=O)NCC(=O)NC2CCCc3ccccc32)cc1 (stereo not drawn) [Entry 6, 4-(hexyloxy)-N-[2-oxo-2-(1,2,3,4-tetrahydronaphthalen-1-ylamino)ethyl]benzamide]
> 5000 nM	> 5000 nM	50 to 500 nM	O=C(CNC(=O)Nc1ccc(-c2ccccc2)cc1)NC1CCCc2ccccc21 (stereo not drawn) [Entry 73, N˜2˜-[(biphenyl-4-ylamino)carbonyl]-N-(1,2,3,4-tetrahydronaphthalen-1-yl)glycinamide]
500 to 5000 nM	50 to 500 nM	50 to 500 nM	CC(C)c1ccc(NC(=O)N2CCC[C@H]2C(=O)NCc2ccc(Cl)c(Cl)c2)cc1 [Entry 24, (2S)-N˜2˜-[(3,4-dichlorophenyl)methyl]-N˜1˜-[4-(1-methylethyl)phenyl]pyrrolidine-1,2-dicarboxamide]
> 5000 nM	> 5000 nM	50 to 500 nM	CCCCCCOc1ccc(C(=O)NC(C)C(=O)NC2CCc3ccccc3C2)cc1 (stereo not drawn) [Entry 36, 4-(hexyloxy)-N-[1-methyl-2-oxo-2-(1,2,3,4-tetrahydronaphthalen-2-ylamino)ethyl]benzamide]
500 to 5000 nM	500 to 5000 nM	500 to 5000 nM	O=C(COc1ccc(OC(F)(F)F)cc1)NCC(=O)NC1CCCc2ccccc21 (stereo not drawn) [Entry 31, N-(1,2,3,4-tetrahydronaphthalen-1-yl)-N˜2˜-[({4-[(trifluoromethyl)oxy]phenyl}oxy)acetyl]glycinamide]
500 to 5000 nM	50 to 500 nM	50 to 500 nM	CCCCOc1ccc(C(=O)NC(C)C(=O)NC2CCc3ccccc3C2)cc1 (stereo not drawn) [Entry 18, 4-(butyloxy)-N-[1-methyl-2-oxo-2-(1,2,3,4-tetrahydronaphthalen-2-ylamino)ethyl]benzamide]
500 to 5000 nM	500 to 5000 nM	50 to 500 nM	O=C(CC(NC(=O)c1ccccc1)c1ccccc1)NCC(=O)Nc1nccs1 (stereo not drawn) [Entry 92, N-(3-oxo-3-{[2-oxo-2-(1,3-thiazol-2-ylamino)ethyl]amino}-1-phenylpropyl)benzamide]
500 to 5000 nM	50 to 500 nM	50 to 500 nM	CCCCOc1ccc(C(=O)N[C@@H](Cc2c[nH]c3ccccc23)C(=O)NC2CCCc3ccccc32)cc1 (stereo partly drawn) [Entry 14, Nalpha-{[4-(butyloxy)phenyl]carbonyl}-N-(1,2,3,4-tetrahydronaphthalen-1-yl)tryptophanamide]
500 to 5000 nM	500 to 5000 nM	50 to 500 nM	COc1cc2cc(C(=O)NCC(=O)NC3CCCc4ccccc43)[nH]c2cc1OC (stereo not drawn) [Entry 59, 5,6-bis(methyloxy)-N-(2-oxo-2-(1,2,3,4-tetrahydronaphthalen-1-ylamino)ethyl]-1H-indole-2-carboxamide]
50 to 500 nM	< 50 nM	< 50 nM	CCc1ccc(-c2ccc(C(=O)NCC(=O)Nc3cccc4ccccc34)cc2)cc1 [Entry 67, 4′-ethyl-N-[2-(naphthalen-1-ylamino)-2-oxoethyl]biphenyl-4-carboxamide]
